Results as given in patent publication US20170190671A1, “BIS(ARYL)CATECHOL DERIVATIVES AS HERBICIDES” (E I DU PONT DE NEMOURS AND COMPANY, priority 2014, published 2017).

How the values were obtained:
Assay in all cases: Test C preemergence
Assay type in all cases: in vivo
[1] = tested on: barnyardgrass (Echinochloa crus-galli); conditions: Echinochloa crus-galli, pre-emergence, preemergence, scale 0 to 100, read-out: Plant response rating, Barnyardgrass; for pest or weed control at 31 g/ha: 31 g ai/ha; for pest or weed control at 62 g/ha: 62 g ai/ha; for pest or weed control at 125 g/ha: 125 g ai/ha; for pest or weed control at 250 g/ha: 250 g ai/ha
How it was run: (§1)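 After preemergence treatment of seeds in loam-sand soil or foliar treatment at the 1- to 4-leaf stage of plants in peat/vermiculite medium, pots were kept 13-15 days in the greenhouse. Each was then scored visually, 0 meaning no effect and 100 complete control.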

[2] = tested on: pigweed (Amaranthus retroflexus); conditions: Amaranthus retroflexus, pre-emergence, 336 h, preemergence, scale 0 to 100, read-out: Plant response rating, Pigweed; for pest or weed control at 31 g/ha: 31 g ai/ha; for pest or weed control at 62 g/ha: 62 g ai/ha; for pest or weed control at 125 g/ha: 125 g ai/ha
How it was run: as §1

[3] = tested on: morningglory (Ipomoea coccinea); conditions: Ipomoea, pre-emergence, 336 h, preemergence, scale 0 to 100, read-out: Plant response rating, Morningglory; for pest or weed control at 31 g/ha: 31 g ai/ha; for pest or weed control at 62 g/ha: 62 g ai/ha; for pest or weed control at 125 g/ha: 125 g ai/ha
How it was run: as §1

[4] = tested on: large (Lg) crabgrass (Digitaria sanguinalis); conditions: Digitaria sanguinalis, pre-emergence, 336 h, preemergence, scale 0 to 100, read-out: Plant response rating, Crabgrass, Large; for pest or weed control at 31 g/ha: 31 g ai/ha; for pest or weed control at 62 g/ha: 62 g ai/ha; for pest or weed control at 125 g/ha: 125 g ai/ha
How it was run: as §1

[5] = tested on: giant foxtail (Setaria faberii); conditions: Setaria faberi, pre-emergence, 336 h, preemergence, scale 0 to 100, read-out: Plant response rating, Foxtail, Giant; for pest or weed control at 31 g/ha: 31 g ai/ha; for pest or weed control at 62 g/ha: 62 g ai/ha; for pest or weed control at 125 g/ha: 125 g ai/ha
How it was run: as §1

[6] = tested on: johnsongrass (Sorghum halepense); conditions: Sorghum halepense, pre-emergence, 336 h, preemergence, scale 0 to 100, read-out: Plant response rating, Johnsongrass; for pest or weed control at 31 g/ha: 31 g ai/ha; for pest or weed control at 62 g/ha: 62 g ai/ha; for pest or weed control at 125 g/ha: 125 g ai/ha
How it was run: as §1

corn (Zea mays) = conditions: Zea mays, pre-emergence, 336 h, preemergence, scale 0 to 100; for Corn plant response rating (crop injury, 0 = no effect, 100 = complete kill) at 31 g/ha: 31 g ai/ha; for Corn plant response rating (crop injury, 0 = no effect, 100 = complete kill) at 62 g/ha: 62 g ai/ha; for Corn plant response rating (crop injury, 0 = no effect, 100 = complete kill) at 125 g/ha: 125 g ai/ha
How it was run: as §1

[7] = tested on: Italian ryegrass (Lolium multiflorum); conditions: Lolium multiflorum, pre-emergence, 336 h, preemergence, scale 0 to 100, read-out: Plant response rating, Ryegrass, Italian; for pest or weed control at 31 g/ha: 31 g ai/ha; for pest or weed control at 62 g/ha: 62 g ai/ha; for pest or weed control at 125 g/ha: 125 g ai/ha; for pest or weed control at 250 g/ha: 250 g ai/ha
How it was run: as §1

[8] = tested on: galium (catchweed bedstraw, Galium aparine); conditions: Galium, pre-emergence, 336 h, preemergence, scale 0 to 100, read-out: Plant response rating, Galium; for pest or weed control at 31 g/ha: 31 g ai/ha; for pest or weed control at 62 g/ha: 62 g ai/ha; for pest or weed control at 125 g/ha: 125 g ai/ha
How it was run: as §1

[9] = tested on: lambsquarters (Chenopodium album); conditions: Chenopodium album, pre-emergence, 336 h, preemergence, scale 0 to 100, read-out: Plant response rating, Lambsquarters; for pest or weed control at 31 g/ha: 31 g ai/ha; for pest or weed control at 62 g/ha: 62 g ai/ha; for pest or weed control at 125 g/ha: 125 g ai/ha
How it was run: as §1

soybean (Glycine max) = conditions: Glycine max, pre-emergence, preemergence, scale 0 to 100, read-out: Plant response rating, Soybean; for plant injury at 31 g/ha: 31 g ai/ha; for plant injury at 250 g/ha: 250 g ai/ha
How it was run: as §1

[10] = tested on: velvetleaf (Abutilon theophrasti); conditions: Abutilon theophrasti, pre-emergence, preemergence, scale 0 to 100, read-out: Plant response rating, Velvetleaf; for pest or weed control at 31 g/ha: 31 g ai/ha; for pest or weed control at 62 g/ha: 62 g ai/ha; for pest or weed control at 125 g/ha: 125 g ai/ha; for pest or weed control at 250 g/ha: 250 g ai/ha
How it was run: as §1

[11] = tested on: winter wheat (Triticum aestivum); conditions: Triticum aestivum, pre-emergence, 336 h, preemergence, scale 0 to 100, read-out: Plant response rating, Wheat; for plant injury at 31 g/ha: 31 g ai/ha; for plant injury at 62 g/ha: 62 g ai/ha; for plant injury at 125 g/ha: 125 g ai/ha; for plant injury at 250 g/ha: 250 g ai/ha
How it was run: as §1

[12] = tested on: ragweed (common ragweed, Ambrosia elatior); conditions: Ambrosia artemisiifolia, pre-emergence, 336 h, preemergence, scale 0 to 100, read-out: Plant response rating, Ragweed; for pest or weed control at 31 g/ha: 31 g ai/ha; for pest or weed control at 62 g/ha: 62 g ai/ha; for pest or weed control at 125 g/ha: 125 g ai/ha; for pest or weed control at 250 g/ha: 250 g ai/ha
How it was run: as §1

[13] = tested on: waterhemp (common waterhemp, Amaranthus rudis); conditions: Amaranthus tuberculatus, pre-emergence, preemergence, scale 0 to 100, read-out: Plant response rating, Waterhemp; for pest or weed control at 31 g/ha: 31 g ai/ha; for pest or weed control at 62 g/ha: 62 g ai/ha; for pest or weed control at 125 g/ha: 125 g ai/ha; for pest or weed control at 250 g/ha: 250 g ai/ha
How it was run: as §1

With `Clc1cnc(Oc2cccc(Cl)c2Oc2ncc(Br)cn2)nc1` [Compound 17, 5-bromo-2-[2-chloro-6-[(5-chloro-2-pyrimidinyl)oxy]phenoxy]pyrimidine] the pest or weed control at 31 g/ha [1] was 20%, the pest or weed control at 62 g/ha [1] was 85% and the pest or weed control at 125 g/ha [1] was 100%. For the same compound, the pest or weed control at 250 g/ha [1] was 100%, the pest or weed control at 31 g/ha [2] was 100% and the pest or weed control at 62 g/ha [2] was 100%. For the same compound, the pest or weed control at 125 g/ha [2] was 100%, the pest or weed control at 31 g/ha [3] was 40% and the pest or weed control at 62 g/ha [3] was 60%. For the same compound, the pest or weed control at 125 g/ha [3] was 98%, the pest or weed control at 31 g/ha [4] was 100% and the pest or weed control at 62 g/ha [4] was 100%. For the same compound, the pest or weed control at 125 g/ha [4] was 100%, the pest or weed control at 31 g/ha [5] was 95% and the pest or weed control at 62 g/ha [5] was 100%. It also gave a pest or weed control at 125 g/ha [5] of 100%, a pest or weed control at 31 g/ha [6] of 10% and a pest or weed control at 62 g/ha [6] of 50%. For the same compound, the pest or weed control at 125 g/ha [6] was 85%, the Corn plant response rating (crop injury, 0 = no effect, 100 = complete kill) at 31 g/ha (corn (Zea mays)) was 0% and the Corn plant response rating (crop injury, 0 = no effect, 100 = complete kill) at 62 g/ha (corn (Zea mays)) was 15%. The Corn plant response rating (crop injury, 0 = no effect, 100 = complete kill) at 125 g/ha (corn (Zea mays)) was 55%, the pest or weed control at 31 g/ha [7] was 20% and the pest or weed control at 62 g/ha [7] was 40%. For the same compound, the pest or weed control at 125 g/ha [7] was 90%, the pest or weed control at 250 g/ha [7] was 95% and the pest or weed control at 31 g/ha [8] was 90%. The pest or weed control at 62 g/ha [8] was 98%, the pest or weed control at 125 g/ha [8] was 100% and the pest or weed control at 31 g/ha [9] was 85%. For the same compound, the pest or weed control at 62 g/ha [9] was 90%, the pest or weed control at 125 g/ha [9] was 95% and the plant injury at 31 g/ha (soybean (Glycine max)) was 5%. For the same compound, the plant injury at 62 g/ha (soybean (Glycine max); 62 g ai/ha) was 20%, the plant injury at 125 g/ha (soybean (Glycine max); 125 g ai/ha) was 45% and the plant injury at 250 g/ha (soybean (Glycine max)) was 70%. It also gave a pest or weed control at 31 g/ha [10] of 65%, a pest or weed control at 62 g/ha [10] of 95% and a pest or weed control at 125 g/ha [10] of 100%. For the same compound, the pest or weed control at 250 g/ha [10] was 100%, the plant injury at 31 g/ha [11] was 0% and the plant injury at 62 g/ha [11] was 45%. For the same compound, the plant injury at 125 g/ha [11] was 40%, the plant injury at 250 g/ha [11] was 85% and the pest or weed control at 31 g/ha [12] was 0%. The pest or weed control at 62 g/ha [12] was 25%, the pest or weed control at 125 g/ha [12] was 55% and the pest or weed control at 250 g/ha [12] was 85%. The pest or weed control at 31 g/ha [13] was 100%, the pest or weed control at 62 g/ha [13] was 100% and the pest or weed control at 125 g/ha [13] was 100%. It also gave a pest or weed control at 250 g/ha [13] of 100%.

For `Fc1cccc(Oc2ncc(Cl)cn2)c1Oc1ncc(Br)cn1` [Compound 27, 5-bromo-2-[2-fluoro-6-[(5-chloro-2-pyrimidinyl)oxy]phenoxy]pyrimidine], the pest or weed control at 31 g/ha [1] was 55%, the pest or weed control at 62 g/ha [1] was 100% and the pest or weed control at 125 g/ha [1] was 100%. The pest or weed control at 250 g/ha [1] was 100%, the pest or weed control at 31 g/ha [2] was 100% and the pest or weed control at 62 g/ha [2] was 100%. It also gave a pest or weed control at 125 g/ha [2] of 100%, a pest or weed control at 31 g/ha [3] of 5% and a pest or weed control at 62 g/ha [3] of 40%. It also gave a pest or weed control at 125 g/ha [3] of 98%, a pest or weed control at 31 g/ha [4] of 98% and a pest or weed control at 62 g/ha [4] of 98%. For the same compound, the pest or weed control at 125 g/ha [4] was 100%, the pest or weed control at 31 g/ha [5] was 80% and the pest or weed control at 62 g/ha [5] was 100%. The pest or weed control at 125 g/ha [5] was 100%, the pest or weed control at 31 g/ha [6] was 25% and the pest or weed control at 62 g/ha [6] was 55%. For the same compound, the pest or weed control at 125 g/ha [6] was 75%, the Corn plant response rating (crop injury, 0 = no effect, 100 = complete kill) at 31 g/ha (corn (Zea mays)) was 10% and the Corn plant response rating (crop injury, 0 = no effect, 100 = complete kill) at 62 g/ha (corn (Zea mays)) was 45%. It also gave a Corn plant response rating (crop injury, 0 = no effect, 100 = complete kill) at 125 g/ha (corn (Zea mays)) of 60%, a pest or weed control at 31 g/ha [7] of 10% and a pest or weed control at 62 g/ha [7] of 55%. It also gave a pest or weed control at 125 g/ha [7] of 80%, a pest or weed control at 250 g/ha [7] of 95% and a pest or weed control at 31 g/ha [8] of 100%. For the same compound, the pest or weed control at 62 g/ha [8] was 100%, the pest or weed control at 125 g/ha [8] was 100% and the pest or weed control at 31 g/ha [9] was 80%. The pest or weed control at 62 g/ha [9] was 85%, the pest or weed control at 125 g/ha [9] was 100% and the plant injury at 31 g/ha (soybean (Glycine max)) was 40%. For the same compound, the plant injury at 250 g/ha (soybean (Glycine max)) was 90%, the pest or weed control at 31 g/ha [10] was 60% and the pest or weed control at 62 g/ha [10] was 95%. It also gave a pest or weed control at 125 g/ha [10] of 100%, a pest or weed control at 250 g/ha [10] of 100% and a plant injury at 31 g/ha [11] of 0%. For the same compound, the plant injury at 62 g/ha [11] was 5%, the plant injury at 125 g/ha [11] was 40% and the plant injury at 250 g/ha [11] was 85%. It also gave a pest or weed control at 31 g/ha [12] of 20%, a pest or weed control at 62 g/ha [12] of 60% and a pest or weed control at 125 g/ha [12] of 70%. For the same compound, the pest or weed control at 250 g/ha [12] was 85%, the pest or weed control at 31 g/ha [13] was 100% and the pest or weed control at 62 g/ha [13] was 100%. The pest or weed control at 125 g/ha [13] was 100% and the pest or weed control at 250 g/ha [13] was 100%.
